Measurements taken from ChEMBL document CHEMBL1201862, “PubChem BioAssay data set” (2004).
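Test compounds were applied to cells in 96-well plates for 48 hours at 5 doses. GI50 is the concentration that inhibits growth by half.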 Active and inactive are the calls of the source. Cut-off read from the data, not from the text of the source: active = GI50 up to about 1.1 µM and inactive = higher.

How the values were obtained:
Assay in all cases: NCI-60 cell line screen, 48 h
SNB-75 = system: SNB-75
CCRF-CEM = system: CCRF-CEM
SF-295 = system: SF-295
HCC 2998 = system: HCC 2998
UO-31 = system: UO-31
EKVX = system: EKVX
COLO 205 = system: COLO 205
KM12 = system: KM12
HOP-62 = system: HOP-62
MCF7 = system: MCF7
NCI-H23 = system: NCI-H23
MOLT-4 = system: MOLT-4
LOX IMVI = system: LOX IMVI
SNB-19 = system: SNB-19
SN12C = system: SN12C
HOP-92 = system: HOP-92
NCI-H460 = system: NCI-H460
SF-539 = system: SF-539
UACC-257 = system: UACC-257
TK-10 = system: TK-10

SMILES | GI50 (SNB-75) | GI50 (CCRF-CEM) | GI50 (SF-295) | GI50 (HCC 2998) | GI50 (UO-31) | GI50 (EKVX) | GI50 (COLO 205) | GI50 (KM12) | GI50 (HOP-62) | GI50 (MCF7) | GI50 (NCI-H23) | GI50 (MOLT-4) | GI50 (LOX IMVI) | GI50 (SNB-19) | GI50 (SN12C) | GI50 (HOP-92) | GI50 (NCI-H460) | GI50 (SF-539) | GI50 (UACC-257) | GI50 (TK-10)
CC[C@]12C=CCN3CC[C@@]4(c5ccc(OC)cc5N(C)[C@H]4[C@@](O)(C(=O)OC)[C@@H]1OC(C)=O)[C@@H]32 | 51.3 µM (inactive) | 132 µM (inactive) | 152 µM (inactive) | > 200 µM (inactive) | 59 µM (inactive) | > 151 µM (inactive) | > 185 µM (inactive) | > 200 µM (inactive) | 171 µM (inactive) | 147 µM (inactive) | > 171 µM (inactive) | 81.3 µM (inactive) | > 200 µM (inactive) | > 200 µM (inactive) | > 183 µM (inactive) | 46.2 µM (inactive) | 177 µM (inactive) | > 200 µM (inactive) | 172 µM (inactive) | –
COc1ccc(-n2sc3ncc(-c4ccccc4)cc3c2=O)cc1 | 34.5 µM (inactive) | 39.4 µM (inactive) | > 100 µM (inactive) | 92.7 µM (inactive) | 21.7 µM (inactive) | 69.5 µM (inactive) | 56.4 µM (inactive) | 50 µM (inactive) | > 100 µM (inactive) | 28.6 µM (inactive) | 23.3 µM (inactive) | – | 32.1 µM (inactive) | 29.4 µM (inactive) | 27.9 µM (inactive) | 42.5 µM (inactive) | > 100 µM (inactive) | – | 57.8 µM (inactive) | 66.1 µM (inactive)
COc1cc2c(cc1O)NC(=O)[C@@H]1C[C@@H](O)CN1C2=O | > 100 µM (inactive) | 28.4 µM (inactive) | 27 µM (inactive) | > 100 µM (inactive) | 64.4 µM (inactive) | > 100 µM (inactive) | > 100 µM (inactive) | 53.6 µM (inactive) | 27.4 µM (inactive) | > 100 µM (inactive) | > 100 µM (inactive) | 37.6 µM (inactive) | 40.2 µM (inactive) | > 100 µM (inactive) | > 100 µM (inactive) | > 100 µM (inactive) | 72.4 µM (inactive) | 43.8 µM (inactive) | > 100 µM (inactive) | > 100 µM (inactive)
CCNC(=O)C(C)C1CCC2(C)C=CC(=O)C(C)=C2C1O (stereo unspecified) | > 100 µM (inactive) | > 100 µM (inactive) | > 93.5 µM (inactive) | > 100 µM (inactive) | > 73.6 µM (inactive) | > 100 µM (inactive) | > 100 µM (inactive) | > 100 µM (inactive) | > 100 µM (inactive) | > 100 µM (inactive) | > 100 µM (inactive) | > 100 µM (inactive) | > 91 µM (inactive) | > 100 µM (inactive) | > 100 µM (inactive) | > 100 µM (inactive) | > 100 µM (inactive) | > 100 µM (inactive) | > 100 µM (inactive) | –
[N-]=[N+]=CC(=O)CCC(N)C(=O)O (stereo unspecified) | 23.1 µM (inactive) | 0.676 µM (active) | 1.28 µM (inactive) | 1.67 µM (inactive) | 5.12 µM (inactive) | 4.83 µM (inactive) | 1.15 µM (inactive) | 0.541 µM (active) | 1.31 µM (inactive) | 0.474 µM (active) | 4.42 µM (inactive) | 0.721 µM (active) | 0.689 µM (active) | 8.71 µM (inactive) | 2.77 µM (inactive) | 13.8 µM (inactive) | 1.38 µM (inactive) | 0.482 µM (active) | 11 µM (inactive) | 2.07 µM (inactive)
Cc1cc(C)nc(NS(=O)(=O)c2ccc(NNc3c4ccccc4nc4c(C(=O)Nc5ccc(S(N)(=O)=O)cc5)cccc34)cc2)n1 | 18.6 µM (inactive) | 20.2 µM (inactive) | 54 µM (inactive) | 20.1 µM (inactive) | 45.7 µM (inactive) | 45.2 µM (inactive) | > 100 µM (inactive) | 34 µM (inactive) | 33.4 µM (inactive) | 53.5 µM (inactive) | 21.2 µM (inactive) | 17.1 µM (inactive) | 19.2 µM (inactive) | 27.8 µM (inactive) | 29.9 µM (inactive) | 17.4 µM (inactive) | 37.6 µM (inactive) | 40.7 µM (inactive) | > 100 µM (inactive) | 69.2 µM (inactive)
CC1=CC(O)C(O)C2(C)C1CC1OC(=O)C(O)C3C(C)C(O)C4(O)OCC13C42 (stereo unspecified) | 6.18 µM (inactive) | 7.05 µM (inactive) | 28.8 µM (inactive) | 16.8 µM (inactive) | 110 µM (inactive) | 30.9 µM (inactive) | 20.1 µM (inactive) | 13.3 µM (inactive) | 65.3 µM (inactive) | 91.6 µM (inactive) | 49.5 µM (inactive) | 12.2 µM (inactive) | 37.8 µM (inactive) | 13.7 µM (inactive) | 236 µM (inactive) | 6.03 µM (inactive) | 7.82 µM (inactive) | 39.2 µM (inactive) | 103 µM (inactive) | –
CC(C)[C@](O)(C(=O)OCC1CC[N+]2([O-])CC[C@@H](O)C12)[C@H](C)O (stereo partly specified) | 126 µM (inactive) | > 375 µM (inactive) | > 375 µM (inactive) | > 277 µM (inactive) | > 375 µM (inactive) | > 375 µM (inactive) | > 375 µM (inactive) | > 375 µM (inactive) | > 375 µM (inactive) | > 375 µM (inactive) | > 375 µM (inactive) | > 375 µM (inactive) | > 142 µM (inactive) | > 375 µM (inactive) | > 375 µM (inactive) | > 375 µM (inactive) | > 122 µM (inactive) | > 375 µM (inactive) | > 375 µM (inactive) | –
COc1cccc2c1[C@H]1CO[C@H]3C4C[C@H](C(=O)O)C([C@@H](C2)N13)N4C (stereo partly specified) | 1.48 µM (inactive) | – | 7.1 µM (inactive) | 2.58 µM (inactive) | 1.54 µM (inactive) | 4.74 µM (inactive) | 1.6 µM (inactive) | – | – | 0.491 µM (active) | 1.79 µM (inactive) | 1.69 µM (inactive) | 1.36 µM (inactive) | 2.91 µM (inactive) | 1.99 µM (inactive) | 1.66 µM (inactive) | 3.93 µM (inactive) | 1.56 µM (inactive) | 1.91 µM (inactive) | 3.28 µM (inactive)
Cc1ccc(C=C(C(=O)O)C(=O)O)o1 | > 100 µM (inactive) | > 100 µM (inactive) | > 100 µM (inactive) | > 100 µM (inactive) | > 100 µM (inactive) | > 100 µM (inactive) | > 100 µM (inactive) | > 100 µM (inactive) | > 100 µM (inactive) | > 100 µM (inactive) | > 100 µM (inactive) | > 100 µM (inactive) | > 100 µM (inactive) | > 100 µM (inactive) | > 100 µM (inactive) | – | > 100 µM (inactive) | > 100 µM (inactive) | > 100 µM (inactive) | > 100 µM (inactive)
COc1ccc2c(c1)c1c(n2CCN2CCCCC2)-c2cccc(OC)c2CC1 | 18.5 µM (inactive) | 4.27 µM (inactive) | 30.5 µM (inactive) | 15.5 µM (inactive) | 10.4 µM (inactive) | 19.6 µM (inactive) | 16.7 µM (inactive) | 13 µM (inactive) | 16.7 µM (inactive) | 15.5 µM (inactive) | 14.8 µM (inactive) | 16.4 µM (inactive) | 16.1 µM (inactive) | 13.4 µM (inactive) | 14.9 µM (inactive) | > 10 µM (inactive) | 19.9 µM (inactive) | – | 18.2 µM (inactive) | 15 µM (inactive)
O=C1OC2CC=CC1C2 (stereo unspecified) | > 100 µM (inactive) | > 100 µM (inactive) | > 100 µM (inactive) | > 100 µM (inactive) | > 100 µM (inactive) | > 100 µM (inactive) | > 100 µM (inactive) | > 100 µM (inactive) | > 100 µM (inactive) | > 100 µM (inactive) | > 100 µM (inactive) | > 100 µM (inactive) | > 100 µM (inactive) | > 100 µM (inactive) | > 100 µM (inactive) | > 100 µM (inactive) | > 100 µM (inactive) | > 100 µM (inactive) | > 100 µM (inactive) | –
Nc1ncnc2c1nnn2C1OC(CO)C(O)C1O (stereo unspecified) | 9.02 µM (inactive) | 3.23 µM (inactive) | 30.1 µM (inactive) | 1.83 µM (inactive) | 2.07 µM (inactive) | 7.66 µM (inactive) | 3.05 µM (inactive) | 4.21 µM (inactive) | 6.05 µM (inactive) | 2.48 µM (inactive) | 7.82 µM (inactive) | 5.41 µM (inactive) | 1.8 µM (inactive) | 5.66 µM (inactive) | 1.17 µM (inactive) | 7.14 µM (inactive) | 2.13 µM (inactive) | 9.14 µM (inactive) | 8.93 µM (inactive) | –
CC(=O)Nc1ccc2oc(=O)c3ccccc3c2c1 | > 100 µM (inactive) | > 100 µM (inactive) | > 100 µM (inactive) | > 100 µM (inactive) | > 100 µM (inactive) | > 100 µM (inactive) | > 100 µM (inactive) | > 100 µM (inactive) | > 100 µM (inactive) | > 100 µM (inactive) | > 100 µM (inactive) | > 100 µM (inactive) | > 100 µM (inactive) | > 100 µM (inactive) | > 100 µM (inactive) | > 100 µM (inactive) | > 100 µM (inactive) | > 100 µM (inactive) | > 100 µM (inactive) | –
